The values that follow come from US8946507B2, “Method of selectively producing male or female sterile plants” (priority 2002, dated 2015).

For series [1], the system named is Nicotiana tabacum var. Samsun (transgenic, D-amino acid oxidase under female floral promoter). As to the kind of experiment: Conditional female sterility of transgenic tobacco expressing D-amino acid oxidase in female floral tissue, treated with D-amino acids. Format: in vivo. To be noted: for seed production after treatment: foliar spray usually 0.25-20 kg/ha, root drench or 10-200 mM solution into buds, prior to or during early flower formation; for viable pollen production after treatment: same treatment conditions as for seed production. As for the experimental part:
Tobacco leaf discs are transformed with the recombinant binary vectors using methods similar to those described in Horsch et al (1985) Science, 227, 1229-1231 Many variations of the method may be used. The binary vector can be transformed into, for example, Agrobacterium tumefaciens strain LBA 4404 using the freeze thaw method of transformation. Tobacco transformation and whole plant regeneration is performed using Nicotiana tabacum var. Samsun according to protocols described by Draper et al (Plant Genetic Transformation, Blackwell Sci. Pub. 1989). Transformation events are selected on MS-media containing kanamycin or other suitable antibiotic. The presence of integrated transgenes is confirmed by PCR. Plants are regenerated and allowed to reach maturity and selfed on to produce seed. Northern and/or Western analysis is used to confirm tissue-specific expression of the D-amino acid oxidase genes. […] Seeds of the T1 generation are planted out. Once plantlets have grown to a sufficient size they are tested by PCR for the presence of transgene. PCR positive plants are transferred to the greenhouse. […] A subset of these (putatively) conditionally sterile plants are treated with D-phosphinothricin or D-alanine or D leucine or D asparagine or D methionine or D-aspartate or D-glutamate in various amounts and at varying growth stages. […] For example these amino acids are pure D enantiomers or, alternatively, are DL racemates. For example, they are applied as a foliar spray, prior to or during the early stages of flower formation, at rates usually between 0.25 and 20 kg/ha. Amino acids which may crystallise out of solution on the leaves following foliar application may be redissolved and remobilised for leaf uptake by further applications of water as a spray mist. Amino acids are, for example, also applied as a root drench and optionally, further applied as ˜50 ul of a 10-200 mM solution flooded directly into the buds of emerging florets. Pollen from the treated plants is collected and viability is tested. […] Control plants are both transgenic and non-transgenic and are grown under identical conditions and under an identical regime of physical treatments except that treatment solutions are either water or an equivalent concentration of pure L-amino acid.

The test system of series [2] is Nicotiana tabacum (transgenic, stig 1 D-amino acid oxidase and plastocyanin/PAT). Briefly: Transgenic tobacco (stig1 D-amino acid oxidase M213R plus plastocyanin promoter PAT) sprayed with DL phosphinothricin. It counts as in vivo. The text has this: In one variant of the method, the amino acid applied is racemic DL phosphinothricin. In this case, the DNA construct used for transformation comprises, in addition to the DNA sequence encoding a D-amino acid oxidase under operable expression control of a tissue specific female floral promoter region such as ‘stig 1’, also a DNA sequence (EMBL: A02774) a ‘PAT’ gene under operable control of a promoter region such as the region 5′ of the translational start of the plastocyanin gene of the Pisum sativum plastocyanin gene (EMBL accession number X16082). For example, the construct is the same as depicted in FIG. 1 except that the DNA sequence encoding D-amino acid oxidase is site-specifically mutated so that the M213R form of the enzyme is encoded. The plastocyanin promoter region provides for preferential expression in the green tissues of the plant. […] Thus, in this variant of the example, the non-phytotoxic substance D phosphinothricin is applied in its least costly and most readily available form as the commercial herbicide DL phosphinothricin racemate.

The subject of series [3] is tobacco plants (transgenic, TA 29 D-amino acid oxidase and plastocyanin/PAT). As to the kind of experiment: Transgenic tobacco (TA 29 D-amino acid oxidase plus plastocyanin promoter PAT) sprayed with DL phosphinothricin. Format: in vivo. To be noted: spray, rates between 250 g/ha and 5 kg/ha. The source says:
Analagous to example 1, in one variant of the example, the amino acid applied is racemic DL phosphinothricin. In this case the DNA construct used for transformation comprises, in addition to the DNA sequence encoding a D-amino acid oxidase under operable expression control of a tissue specific male floral promoter region such as ‘TA 29’, also a DNA sequence encoding a phosphinothricin N-acetyl transferase gene such as the ‘PAT’ gene under operable control of a promoter region such as that from the plastocyanin gene (in this case the region from the Pisum sativum plastocyanin gene).

Series [4] deals with wheat containing a PAT gene under barley plastocyanin promoter region. Briefly: Reproductive tolerance of wheat containing PAT gene under barley plastocyanin promoter to DL phosphinothricin. It counts as in vivo. To be noted: rates up of at least 2 kg/ha. The text has this: The current invention provides a method of overcoming the problem of enabling the use of a cheap commercial herbicide, DL phosphinothricin, as both weed control and hybridising agent in the production of hybrid cereals and which method, furthermore, provides resultant hybrid cereals or rice in which DL phosphinothricin (or L phosphinothricin) can be safely used for weed control without substantial loss of yield. As a yet further benefit, selfed seed from the F1 generation which may later arise as volunteers in subsequent crops will be easier to manage since they, themselves, will generally be sterile if sprayed with controlling amounts of DL phosphinothricin. The same will hold for the progeny of pollen outcrossing from the F1 plants to weeds (e.g. red rice) or other cereals. The current invention provides genes and enzymes that convert a non-phytotoxic component, D-phosphinothricin, of a commercial herbicide formulation DL phosphinothricin, into the active L form. The PAT gene which converts L-phosphinothricin to N-acetyl L-phosphinithricin is known already and is used commercially to provide tolerance to DL phosphinothricin in crops. […]

The target of series [5] is T1, M213R (arginine replacement for methionine) mutant form of R. gracilis D amino acid oxidase (Rhodotorula toruloides, UniProt P80324, M213R).
T1 construct: made in house; host or cells: E. coli BL21 DE3 (Novagen pET 24A, T7 promoter)
Briefly: Oxygen electrode assay of D-amino acid oxidase activity, M213R mutant, crude E. coli extract. To be noted: 25° C., 50 mM Mops/KOH pH 7.0, 0.01 mM FAD; ammonium salt of DL phosphinothricin; estimated enzyme purity in extract 35+/-15% of total protein. Format: biochemical. The source says:
(§1) Additionally a series of particular DNA sequences encoding particularly targeted D-amino acid oxidase enzymes are generated. In particular, genes encoding Rhodotorula gracilis D amino acid oxidase with an arginine, serine, cysteine, lysine, asparagine or alanine replacing the methionine at position 213 and/or a histidine, serine, cysteine, asparagine or alanine replacing the tyrosine at position 238. The methods used are the same as described above except that, rather than a mixture of oligonucleotides, individual oligonucleotide pairs are designed and used to effect each single or double amino acid change. Each resulting mutant D-amino acid oxidase coding sequence is cloned for (untagged) expression behind the T7 promoter in Novagen pET 24A and transformed into E. coli BL21 DE3. The cells are grown in a 1.0 l fermenter in LCM50 medium supplemented with 100 ug/ml kanamycin, induced for expression with 1 mM IPTG and harvested by low-speed centrifugation.
(§2) Approximately 7 g wet weight of cells is washed in water. The cells are resuspended in an equal volume of 50 mM/Mops/KOH buffer at pH 7.0 containing 2 mM EDTA, 2 mM DTT and 0.01 mM FAD. […] Rates of oxygen consumption (after substraction of any drift in the bases line) are measured. […]

Series [6] has as its target T2, M213S (serine replacement for methionine) mutant form of R. gracilis D amino acid oxidase (Rhodotorula toruloides, UniProt P80324, M213S).
T2 construct: made in house; host or cells: E. coli BL21 DE3 (Novagen pET 24A, T7 promoter)
As to the kind of experiment: Oxygen electrode assay of D-amino acid oxidase activity, M213S mutant, crude E. coli extract. Format: biochemical. To be noted: 25° C., 50 mM Mops/KOH pH 7.0, 0.01 mM FAD; ammonium salt of DL phosphinothricin; estimated enzyme purity in extract 35+/-15% of total protein.
Text: as §1, §2

For series [7], the system named is mutant forms of R. gracilis D amino acid oxidase. As to the kind of experiment: Oxygen electrode assay, control experiments with pure enantiomers. It counts as biochemical, Rhodotorula gracilis. To be noted: rate relative to DL phosphinothricin, depending on concentration. How it is done: Approximately 7 g wet weight of cells is washed in water. The cells are resuspended in an equal volume of 50 mM/Mops/KOH buffer at pH 7.0 containing 2 mM EDTA, 2 mM DTT and 0.01 mM FAD. Cells are evenly suspended using a glass homogeniser and then disrupted using a one shot head in the Constant Systems (BudBrooke Rd, Warwick U.K.) Basic Z cell disrupter at 13500 psi. The crude extract is kept cold (˜4° C.) centrifuged at 30,000 gav for 1 h and the pellet discarded. Some of the extract protein is run out on an SDS PAGE gel stained with Coomassie Blue and, through side by side comparison with similarly prepared extracts of cells containing only ‘empty’ pET vector it is estimated that 2-50% of the total soluble protein in the extract is D-amino acid oxidase. Some of the extract protein is exchanged into 50 mM Mops/KOH buffer at pH 7.0 containing 0.01 mM FAD. This is diluted with the same buffer in a standard oxygen electrode cell (calibrated at 25° C. between zero and a saturated concentration of oxygen). Optionally, the D-amino acid oxiadse is further purified using ion-exchange, phenyl sepharose, fractional ammonium sulphate precipitation and gel filtration. Assays, at 25° C., are started by addition of a 200 mM solution of the ammonium salt of DL phosphinothricin to the diluted enzyme. […] Rates of oxygen consumption (after substraction of any drift in the bases line) are measured. […]

Setting [8] is: spray, rates between 250 g/ha and 5 kg/ha.

For the compound `CSCC[C@@H](N)C(=O)O` [D methionine], in series [1], the “seed production after treatment” value is “relatively little or no seed” and the “viable pollen production after treatment” value was “near normal levels of viable pollen”.
For `C[C@@H](N)C(=O)O` [D alanine], in that order: “relatively little or no seed” and “near normal levels of viable pollen”.
On to `N[C@H](CC(=O)O)C(=O)O` [D aspartate], for which, in series [1], the “seed production after treatment” value is recorded as “relatively little or no seed” and the “viable pollen production after treatment” value was “near normal levels of viable pollen”.
Taken in the same sequence, the figures for `NC(=O)C[C@@H](N)C(=O)O` [D asparagine] were “relatively little or no seed” and “near normal levels of viable pollen”.
Turning to `CP(=O)(O)CCC(N)C(=O)O` (stereo not drawn) [DL phosphinothricin], the “yield of plastocyanin/PAT plants without D to L converting activity in floral tissues” value in series [2] (no heterologous D-amino acid oxidase co-expressed in floral tissues) was “no significant loss of yield”. Further, the “reproductive tolerance to the herbicide of plants with plastocyanin promoter/PAT gene” value in series [2] (rates in excess of 2 kg/ha) is given as “substantially complete reproductive tolerance”. In addition, the results for the “female fertility of treated plants” value in series [2] (setting [8]) and in series [3] were “conditionally female sterile” and “normal or near-normal female fertility”, respectively. In addition, the results for the “male fertility of treated plants” value in series [2] (setting [8]) and in series [3] were “normal or near-normal male fertility” and “conditionally male sterile”, respectively. The “visible damage of treated plants” value in series [2] (setting [8]) and in series [3] was “not visibly damaged” in each case. The “reproductive tolerance to application” value in series [4] was “substantially reproductively tolerant”. For the same compound, the “rate of oxidation (oxygen consumption)” value in series [5] is reported as ~14 nmol/min/mg of protein of crude extract; in series [6], ~4 nmol/min/mg of protein of crude extract.
As for `CC(C)C[C@@H](N)C(=O)O` [D leucine], in series [1], the “seed production after treatment” value is “relatively little or no seed” and the “viable pollen production after treatment” value is recorded as “near normal levels of viable pollen”.
`N[C@H](CCC(=O)O)C(=O)O` [D glutamate]: in series [1], the “seed production after treatment” value was “relatively little or no seed” and the “viable pollen production after treatment” value is “near normal levels of viable pollen”.
Take `CP(=O)(O)CC[C@@H](N)C(=O)O` [D-phosphinothricin]: in series [1], the “seed production after treatment” value is given as “relatively little or no seed” and the “viable pollen production after treatment” value is reported as “near normal levels of viable pollen”. For the same compound, the “oxidation of pure enantiomer in control experiments” value in series [7] is given as “up to twice the rate that the DL is”.
On to `CP(=O)(O)CC[C@H](N)C(=O)O` [L-form, L-phosphinothricin, reference compound], for which the “oxidation of pure enantiomer in control experiments” value in series [7] was “not oxidised at all”.
